Laboratory results published in patent US20080221047A1, “Aminoakyl methacrylate copolymer E for maintaining solubility of poorly-soluble drug” (ASTELLAS PHARMA INC.,, priority 2006, published 2008).

Assays:
[1] = Reprecipitation (dissolution) test for compound A dissolved in polyethylene glycol 400, Experimental Example 2; type: physicochemical; conditions: compound A in polyethylene glycol 400
Experimental: (§1) Each (50 mg) of the aminoalkyl methacrylate copolymer E having a solubility enhanced with acid prepared in Example 1, and hydroxypropylmethylcellulose 2910 (TC-5E, Shin-Etsu Chemical Co., Ltd.) was dissolved in 500 mL of a second fluid for dissolution test used in a dissolution test described in the Japanese Pharmacopoeia fifteenth edition. For comparison, 500 mL of a second fluid for dissolution test used in a dissolution test described in the Japanese Pharmacopoeia fifteenth edition without such additives was prepared.
(§2) To each vessel, 2 mL of a solution of compound A (25 mg/mL) in polyethylene glycol 400 (Kanto Chemical Co., Inc.) was added, and an automated dissolution tester (manufactured by Toyama Sangyo Co., Ltd.) was used to carry out a reprecipitation test for compound A, in accordance with a dissolution test, method 2, described in the Japanese Pharmacopoeia. The ultraviolet absorbance of compound A was measured at a wavelength of 273 nm. The paddle rotation speed was 50 rpm. The percentage dissolved was calculated on the basis that an absorbance of 0.576 when measured using a 1 mm cell was regarded as a concentration of 100 μg/mL (compound A).

[2] = Reprecipitation test for compound A with copolymer solubilized with citric acid, Experimental Example 4; type: physicochemical; conditions: compound A in acetonitrile; fluid containing copolymer E of Example 8 (citric acid)
Experimental: as §1, with “copolymers” for “copolymer”, “Examples 1” for “Example 1,”, “8” for “hydroxypropylmethylcellulose 2910 (TC-5E, Shin-Etsu Chemical Co., Ltd.)”, “disintegrating” for “dissolution”
as §2, with “acetonitrile” for “polyethylene glycol 400 (Kanto Chemical Co., Inc.)”, “(Toyama” for “(manufactured by Toyama”

[3] = Reprecipitation (dissolution) test for compound A dissolved in acetonitrile, Experimental Example 1; type: physicochemical
Experimental: as §1, with “1,” for “1, and”, “Ltd.), and copolyvidone (Kollidon VA-64, BASF)” for “Ltd.)”, “disintegrating” for “dissolution”
as §2, with “acetonitrile” for “polyethylene glycol 400 (Kanto Chemical Co., Inc.)”

[4] = Reprecipitation test for compound A with copolymers of different amounts of neutralization, Experimental Example 3; type: physicochemical; conditions: compound A in acetonitrile; fluid containing copolymer E of Examples 5, 6 or 7 (every Example)
Experimental: Each of the aminoalkyl methacrylate copolymers E having a solubility enhanced with acid prepared in Examples 5, 6, and 7 was dissolved in 500 mL of a second fluid for dissolution test used in a dissolution test described in the Japanese Pharmacopoeia fifteenth edition.
as §2, with “acetonitrile” for “polyethylene glycol 400 (Kanto Chemical Co., Inc.)”, “(Toyama” for “(manufactured by Toyama”, “The” for “The ultraviolet”

[5] = Reprecipitation (dissolution) test for tacrolimus dissolved in ethanol, Experimental Example 6; type: physicochemical
Experimental: as §1, with “(300” for “(50”, “4,” for “1,”, “300” for “500”, “disintegrating” for “dissolution”
To each vessel, 1 mL of a solution of tacrolimus (100 mg/mL) in ethanol was added. Samples were taken at regular intervals, and centrifuged at 3000 rpm for 15 minutes. Tacrolimus dissolved in each supernatant was measured by a high performance liquid chromatography.

[6] = cited from earlier work
[7] = fluid containing hydroxypropylmethylcellulose 2910, after 2 hours

percentage dissolved ([1]; fluid containing copolymer E of Example 1, after 24 hours) | percentage dissolved [1, 7] | maintenance of solubility [2] | percentage dissolved ([3]; compound A in acetonitrile added to JP second fluid containing copolymer E of Example 1 (50 mg/500 mL), after 24 hours) | percentage dissolved ([3]; compound A in acetonitrile added to JP second fluid containing copolyvidone (50 mg/500 mL), after 2 hours) | percentage dissolved ([3]; compound A in acetonitrile added to JP second fluid containing hydroxypropylmethylcellulose 2910 (50 mg/500 mL), after 2 hours) | percentage dissolved ([5]; fluid containing copolymer E of Example 4, after 24 hours) | percentage dissolved [5, 7] | SMILES | reprecipitation ([1]; absence of additives) | reprecipitation ([3]; compound A in acetonitrile added to JP second fluid, absence of additives) | maintenance of solubility [4] | reprecipitation ([5]; absence of additives) | water solubility [6]
approximately 75% | approximately 30% | maintained for a long time | approximately 75% | approximately 30% | approximately 30% |  |  | Cc1cccc(C)c1N(CC(=O)Nc1ccc(-c2ncon2)cc1)C(=O)C1CCS(=O)(=O)CC1 [compound A, N-(2,6-Dimethylphenyl)-N-(2-{[4-(1,2,4-oxadiazol-3-yl)phenyl]amino}-2-oxoethyl)tetrahydro-2H-thiopyran-4-carboxamide 1,1-dioxide] | reprecipitated immediately after the beginning of the test | reprecipitated immediately after the beginning of the test | a high solubility was maintained for a long time |  | 
 |  |  |  |  |  | ≥ 90% | approximately 20% | C=CC[C@@H]1/C=C(\C)C[C@H](C)C[C@H](OC)[C@H]2O[C@@](O)(C(=O)C(=O)N3CCCC[C@H]3C(=O)O[C@H](/C(C)=C/[C@@H]3CC[C@@H](O)[C@H](OC)C3)[C@H](C)[C@@H](O)CC1=O)[C@H](C)C[C@@H]2OC [tacrolimus] |  |  |  | reprecipitated immediately after the beginning of the test | ≤ 1 µg/mL
